Measurements published in ChEMBL document CHEMBL4321794, “Discovery and Optimization of 2-Arylquinazolin-4-ones into a Potent and Selective Tankyrase Inhibitor Modulating Wnt Pathway Activity” (J Med Chem, 2019).
Activity calls are given as the source filed them. The rule behind the calls is not given here.

What was measured:
[1] = target: T1, Poly [ADP-ribose] polymerase 1 (Homo sapiens, UniProt P09874); assay: Inhibition of N-terminal GST-tagged recombinant full length human PARP1 expressed in Baculovirus infected Sf9 cells using biotinylated substrate after 1 hr by chemiluminescence method
[2] = target: T2, Protein mono-ADP-ribosyltransferase PARP15 (Homo sapiens, UniProt Q460N3); assay: Inhibition of human N-terminal GST-tagged PARP15 (221 to 444 residues) expressed in Escherichia coli using biotinylated substrate by chemiluminescence method
T2 sequence (Q460N3 whole entry): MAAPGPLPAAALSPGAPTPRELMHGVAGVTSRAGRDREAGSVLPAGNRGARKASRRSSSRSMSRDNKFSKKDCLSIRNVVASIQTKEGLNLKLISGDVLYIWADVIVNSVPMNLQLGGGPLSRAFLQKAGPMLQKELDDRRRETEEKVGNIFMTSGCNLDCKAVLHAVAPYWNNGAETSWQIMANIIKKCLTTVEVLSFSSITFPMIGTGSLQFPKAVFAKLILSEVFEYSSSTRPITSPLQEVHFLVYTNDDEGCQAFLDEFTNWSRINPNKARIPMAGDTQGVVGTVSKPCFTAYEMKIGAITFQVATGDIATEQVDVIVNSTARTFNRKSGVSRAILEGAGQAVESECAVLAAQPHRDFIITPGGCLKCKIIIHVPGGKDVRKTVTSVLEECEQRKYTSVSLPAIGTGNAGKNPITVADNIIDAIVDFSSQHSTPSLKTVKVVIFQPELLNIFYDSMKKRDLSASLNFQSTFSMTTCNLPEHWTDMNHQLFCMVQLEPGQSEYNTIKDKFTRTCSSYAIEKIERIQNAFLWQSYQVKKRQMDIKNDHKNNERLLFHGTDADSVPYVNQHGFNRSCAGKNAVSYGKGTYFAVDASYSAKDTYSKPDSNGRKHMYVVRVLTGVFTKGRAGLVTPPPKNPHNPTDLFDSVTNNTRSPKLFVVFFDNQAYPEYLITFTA

[3] = Time at which free-drug concentration exceeds in vitro cellular EC50 for inhibition of tankyrase 1/2 in human DLD1 cells assessed as increase in axin2 accumulation in mouse at 30 mg/kg, po; assay type: organism-based; details: in vivo
[4] = target: Poly [ADP-ribose] polymerase 2 (Homo sapiens, UniProt Q9UGN5); assay: Inhibition of N-terminal GST-tagged recombinant human PARP2 (2 to 583 residues) expressed in Baculovirus infected Sf9 cells using biotinylated substrate after 1 hr by chemiluminescence method
[5] = Protein binding in mouse plasma assessed as unbound fraction at 30 mg/kg, po; assay type: ADME, organism-based
[6] = Time at which free-drug concentration exceeds in vitro cellular EC50 for inhibition of tankyrase 1/2 in human DLD1 cells assessed as increase in axin2 accumulation in mouse xenografted with human DLD1 at 90 mg/kg, po administered via gavage; assay type: organism-based; details: in vivo
[7] = test system: Mus musculus; assay: Ex vivo inhibition of tankyrase 1/2 in human DLD1 cells xenografted in immunodeficient athymic nude mouse assessed as increase in tankyrase level in tumor lysates at 10 mg/kg, po administered via gavage measured after 12 hrs by luminex based bead assay; assay type: functional, organism-based; details: Neoplasm, Lysate
[8] = test system: Mus musculus; assay: Ex vivo inhibition of tankyrase 1/2 in human DLD1 cells xenografted in immunodeficient athymic nude mouse assessed as increase in axin-2 level in tumor lysates at 10 to 90 mg/kg, po administered via gavage by luminex based bead assay; assay type: functional, organism-based; details: Neoplasm, Lysate, TDE = time-dependent effect
[9] = Intrinsic clearance in mouse liver microsomes assessed per mg protein in presence of NADPH by UPLC analysis; assay type: ADME, Microsome; details: read-out: CLH
[10] = Time at which free-drug concentration exceeds in vitro cellular EC50 for inhibition of tankyrase 1/2 in human DLD1 cells assessed as increase in axin2 accumulation in mouse xenografted with human DLD1 at 10 mg/kg, po administered via gavage; assay type: organism-based; details: in vivo
[11] = Intrinsic clearance in mouse hepatocytes assessed per million cells; assay type: ADME, cell-based, Hepatocyte; details: read-out: CLH
[12] = target: T1, Poly [ADP-ribose] polymerase 1; assay: Inhibition of recombinant human full-length Myc/His-tagged Parp-1 expressed in baculovirus infected Sf21 insect cells assessed as reduction in auto-PARsylation using activated DNA as substrate incubated for 150 mins in presence of NAD and bio-NAD as co-substrate by TR-FRET assay
[13] = test system: Mus musculus; assay: Ex vivo inhibition of tankyrase 1/2 in human DLD1 cells xenografted in immunodeficient athymic nude mouse assessed as increase in tankyrase level in tumor lysates at 10 mg/kg, po administered via gavage by luminex based bead assay; assay type: functional, organism-based; details: Neoplasm, Lysate, TDE = time-dependent effect
[14] = test system: Mus musculus; assay: Ex vivo inhibition of tankyrase 1/2 in human DLD1 cells xenografted in immunodeficient athymic nude mouse assessed as increase in axin-2 level in tumor lysates at 10 mg/kg, po administered via gavage measured after 12 hrs by luminex based bead assay; assay type: functional, organism-based; details: Neoplasm, Lysate
[15] = target: T3, Protein mono-ADP-ribosyltransferase PARP8 (Homo sapiens, UniProt Q8N3A8); assay: Inhibition of human recombinant PARP8 by chemiluminescence method
T3 sequence (Q8N3A8 whole entry): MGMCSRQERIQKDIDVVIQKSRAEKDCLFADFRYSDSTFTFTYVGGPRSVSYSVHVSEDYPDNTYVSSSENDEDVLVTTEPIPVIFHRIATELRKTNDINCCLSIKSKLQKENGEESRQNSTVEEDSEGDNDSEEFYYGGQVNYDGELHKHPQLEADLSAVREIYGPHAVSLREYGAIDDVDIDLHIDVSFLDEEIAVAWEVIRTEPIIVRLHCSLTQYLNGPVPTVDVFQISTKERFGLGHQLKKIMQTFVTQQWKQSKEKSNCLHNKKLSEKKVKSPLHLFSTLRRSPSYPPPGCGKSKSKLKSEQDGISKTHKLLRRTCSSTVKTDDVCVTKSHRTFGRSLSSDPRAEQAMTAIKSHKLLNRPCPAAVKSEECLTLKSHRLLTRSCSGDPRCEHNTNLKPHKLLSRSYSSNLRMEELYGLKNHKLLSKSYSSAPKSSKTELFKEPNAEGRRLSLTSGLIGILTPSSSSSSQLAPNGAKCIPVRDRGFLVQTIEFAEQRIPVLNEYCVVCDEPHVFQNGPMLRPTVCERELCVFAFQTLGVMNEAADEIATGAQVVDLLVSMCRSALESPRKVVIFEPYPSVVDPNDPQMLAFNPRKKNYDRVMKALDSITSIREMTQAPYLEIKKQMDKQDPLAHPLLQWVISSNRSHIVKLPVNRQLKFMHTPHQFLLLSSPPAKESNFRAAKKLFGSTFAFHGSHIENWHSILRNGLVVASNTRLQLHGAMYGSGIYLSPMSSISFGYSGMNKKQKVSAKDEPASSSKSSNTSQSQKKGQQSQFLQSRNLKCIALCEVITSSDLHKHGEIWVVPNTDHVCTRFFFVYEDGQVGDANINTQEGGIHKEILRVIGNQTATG

[16] = Intrinsic clearance in human hepatocytes assessed per million cells; assay type: ADME, cell-based, Hepatocyte; details: read-out: CLH
[17] = Clearance in mouse; assay type: ADME, organism-based; details: in vivo

T1 sequence (P09874 whole entry, the tested form may be a part): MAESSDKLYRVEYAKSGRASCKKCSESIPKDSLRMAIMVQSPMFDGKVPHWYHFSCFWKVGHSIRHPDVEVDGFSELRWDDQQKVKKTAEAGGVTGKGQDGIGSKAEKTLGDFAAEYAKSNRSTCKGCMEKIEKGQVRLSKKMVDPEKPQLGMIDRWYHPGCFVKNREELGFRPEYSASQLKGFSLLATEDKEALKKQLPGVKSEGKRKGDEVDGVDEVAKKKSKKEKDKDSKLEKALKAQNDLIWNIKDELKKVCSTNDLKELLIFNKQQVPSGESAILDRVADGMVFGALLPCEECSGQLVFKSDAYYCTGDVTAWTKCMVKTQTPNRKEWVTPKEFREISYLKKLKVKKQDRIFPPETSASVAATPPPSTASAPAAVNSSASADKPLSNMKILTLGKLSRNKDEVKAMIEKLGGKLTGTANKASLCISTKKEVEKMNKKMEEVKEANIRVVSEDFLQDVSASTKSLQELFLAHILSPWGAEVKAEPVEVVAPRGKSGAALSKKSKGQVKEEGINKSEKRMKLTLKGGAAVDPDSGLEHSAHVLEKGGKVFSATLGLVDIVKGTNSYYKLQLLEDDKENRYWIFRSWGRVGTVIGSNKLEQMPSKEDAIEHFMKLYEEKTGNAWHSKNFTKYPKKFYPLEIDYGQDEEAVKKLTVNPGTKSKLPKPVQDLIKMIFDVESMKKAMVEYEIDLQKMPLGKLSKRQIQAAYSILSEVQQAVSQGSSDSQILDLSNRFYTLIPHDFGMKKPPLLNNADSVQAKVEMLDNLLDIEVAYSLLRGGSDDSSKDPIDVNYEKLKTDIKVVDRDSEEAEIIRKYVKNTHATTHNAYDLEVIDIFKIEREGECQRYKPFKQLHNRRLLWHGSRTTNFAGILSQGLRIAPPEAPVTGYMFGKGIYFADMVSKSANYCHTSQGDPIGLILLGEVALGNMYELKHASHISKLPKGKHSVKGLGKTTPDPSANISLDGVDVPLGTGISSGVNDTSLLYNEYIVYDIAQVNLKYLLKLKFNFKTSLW
Poly [ADP-ribose] polymerase 2, sequence (Q9UGN5 whole entry, the tested form may be a part): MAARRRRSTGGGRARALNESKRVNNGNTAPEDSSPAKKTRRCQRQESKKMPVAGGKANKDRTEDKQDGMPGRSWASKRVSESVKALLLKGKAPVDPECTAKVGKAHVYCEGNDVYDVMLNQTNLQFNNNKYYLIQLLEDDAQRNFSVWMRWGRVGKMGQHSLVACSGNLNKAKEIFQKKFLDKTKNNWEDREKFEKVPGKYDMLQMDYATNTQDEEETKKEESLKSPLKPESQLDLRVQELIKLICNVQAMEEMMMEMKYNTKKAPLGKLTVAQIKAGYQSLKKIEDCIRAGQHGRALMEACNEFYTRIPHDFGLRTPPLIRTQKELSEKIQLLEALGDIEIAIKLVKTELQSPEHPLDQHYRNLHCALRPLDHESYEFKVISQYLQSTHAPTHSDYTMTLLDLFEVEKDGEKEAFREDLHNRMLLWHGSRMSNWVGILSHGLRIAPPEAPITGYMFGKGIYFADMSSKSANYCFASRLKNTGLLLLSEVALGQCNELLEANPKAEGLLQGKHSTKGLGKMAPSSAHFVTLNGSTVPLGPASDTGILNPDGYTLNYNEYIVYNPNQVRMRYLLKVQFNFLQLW

For `CC(C)(O)c1ccc(-c2nc3c(F)cc(F)cc3c(=O)[nH]2)cc1`, which IC50 [1] is on record?
The IC50 was 710 nM.

What about the IC50 [2] of the same molecule?
Its IC50 is > 10000 nM.

What about the “T>fEC50” value [3] of the same molecule?
Its value is “>= 20 hr”.

What about the IC50 [4] of the same molecule?
The IC50 was 1000 nM.

What about the fraction unbound [5] of the same molecule?
The fraction unbound was 0.086.

And the “T>fEC50” value [6]?
The value was “>= 12 hr”.

What about the inhibition [7] of the same molecule?
Its inhibition is “Active”.

What about the inhibition [8] of the same molecule?
The inhibition was “Tde”.

What about the microsomal CLint [9] of the same molecule?
The microsomal CLint was 22 µL/min/mg.

What about the “T>fEC50” value [10] of the same molecule?
The value was “>= 12 hr”.

What about the hepatocyte CLint [11] of the same molecule?
Its hepatocyte CLint is 15.2 µL/min/1e6 cells.

And the IC50 [12]?
Its IC50 is 782 nM.

What about the inhibition [13] of the same molecule?
Its inhibition is “Tde”.

And the inhibition [14]?
The inhibition was “Active”.

And the IC50 [15]?
Its IC50 is > 10000 nM.

What about the hepatocyte CLint [16] of the same molecule?
Its hepatocyte CLint is 1.25 µL/min/1e6 cells.

What about the clearance [17] of the same molecule?
The clearance was 6.83 mL/min/kg.
